Patent publication US10874108B2, “Anti-microbial compositions” (5D HEALTH PROTECTION GROUP LTD, priority 2016, dated 2020)
Where two headings read alike, the source gives them in different places.

Assays:
[1] = test system: P. aeruginosa 24-hour biofilm
Procedure: (§1) Minimum inhibitory concentration (MIC), minimum biocidal concentration (MBC) and minimum biofilm eradication (MBEC) were determined. Values represent a percentage of the stock antimicrobial solution (8%).

[2] = test system: S. aureus 24-hour biofilm
Procedure: as §1

P. aeruginosa biofilms [3] = details: 4%
Procedure: (§2) The Mean Log10 density of untreated controls was calculated (±standard deviation).

S. aureus biofilms [4] = details: 4%
Procedure: as §2

[5] = test system: E. faecalis ATCC 29212 biofilm; experiment: MBEC model (ASTM E2799), liquid formulas; assay type: cell-based; details: treated 24 hours
Procedure: (§3) The MBEC model (ASTM E2799) was used to assess the anti-biofilm efficacy of the liquid formulas. Biofilms were grown on polystyrene pegs in the MBEC model for either 24 or 48 hours before treatment. Using the liquid form of the EDTA complexes 24- and 48-hour biofilms were tested (Table 20).
(§4) 24- and 48-hour biofilms were formed using MBEC plate method and treated for 24 hours. Technical replicates n=3. Log reduction (LR) values show±standard error (SE) of LR value.

[6] = test system: P. aeruginosa NCTC 10662 biofilm; experiment: MBEC model (ASTM E2799), liquid formulas; assay type: cell-based; details: treated 24 hours
Procedure: as §3, §4

[7] = test system: S. aureus ATCC 29213 biofilm; experiment: MBEC model (ASTM E2799), liquid formulas; assay type: cell-based; details: treated 24 hours
Procedure: as §3, §4

[8] = test system: S. aureus MRSA BAA-43 biofilm; experiment: MBEC model (ASTM E2799), liquid formulas; assay type: cell-based; details: treated 24 hours
Procedure: as §3, §4

[9] = test system: S. epidermidis ATCC 35984 biofilm; experiment: MBEC model (ASTM E2799), liquid formulas; assay type: cell-based; details: treated 24 hours
Procedure: as §3, §4

[10] = test system: S. aureus 24-hour CDC biofilms; experiment: Colonies after exposure of 24-hour CDC biofilms to EDTA compounds; assay type: cell-based
[11] = test system: P. aeruginosa 24-hour CDC biofilms; experiment: as above; assay type: cell-based
[12] = Displacement of metals from EDTA complexes by physiological saline; assay type: physicochemical
Procedure: Adding saline to the suspension of Ag4(EDTA), the suspension quickly precipitated a solid (AgCl). The precipitate was filtered off, washed with deionized water 4 times; and then dried in a vacuum oven at 50° C. in a dark flask to avoid exposure to direct light.
The displacement experiment described above was repeated for compounds 1-4 to provide the percent of the displacement of silver, copper, zinc from the EDTA complexes by physiological saline.

P. aeruginosa biofilms [13] = experiment: CDC bioreactor biofilm LR/kill, EDTA compounds at 100 ppm silver; assay type: cell-based; details: 100 ppm of silver, exposed 24 hours
Procedure: (§5) Microbial cultures were exposed to compounds for 24 hours. Compounds were diluted according to 100 ppm of silver. Biofilms were formed using the CDC bioreactor. Samples were performed in triplicate.

S. aureus biofilms [14] = experiment: as above; assay type: cell-based; details: 100 ppm of silver, exposed 24 hours
Procedure: as §5

cells [15] = experiment: Indirect cytotoxicity, agar diffusion method
cells [16] = experiment: Direct cytotoxicity, Neutral Red Uptake assay
[17] = 24-Hour Biofilms, Treatment Time 1
[18] = 24-Hour Biofilms, Treatment Time 5
[19] = 24-Hour Biofilms, Treatment Time 15
[20] = 72-Hour Biofilms, Treatment Time 1
[21] = 72-Hour Biofilms, Treatment Time 5
[22] = 72-Hour Biofilms, Treatment Time 15

## O.O=C([O-])CN(CCN(CC(=O)[O-])CC(=O)[O-])CC(=O)[O-].[Na+].[Na+].[Na+].[Na+] [Tetrasodium EDTA, ethylenediaminetetraacetic acid tetrasodium salt hydrate]
[1]; 1 min
  MBC: 50 percentage of the stock antimicrobial solution (8%)
  MIC: 25 percentage of the stock antimicrobial solution (8%)
[1]; 30 min
  MBC: 50 percentage of the stock antimicrobial solution (8%)
  MIC: 12.5 percentage of the stock antimicrobial solution (8%)
[1]; 1 h
  MBC: 25 percentage of the stock antimicrobial solution (8%)
  MBEC: 6.25 percentage of the stock antimicrobial solution (8%)
  MIC: 25 percentage of the stock antimicrobial solution (8%)
[1]; 24 h
  MBC: 6.25 percentage of the stock antimicrobial solution (8%)
  MBEC: 6.25 percentage of the stock antimicrobial solution (8%)
  MIC: 6.25 percentage of the stock antimicrobial solution (8%)
[2]; 1 min
  MBC: 50 percentage of the stock antimicrobial solution (8%)
  MIC: 25 percentage of the stock antimicrobial solution (8%)
[2]; 30 min
  MBC: 50 percentage of the stock antimicrobial solution (8%)
  MIC: 12.5 percentage of the stock antimicrobial solution (8%)
[2]; 1 h
  MBC: 25 percentage of the stock antimicrobial solution (8%)
  MBEC: 6.25 percentage of the stock antimicrobial solution (8%)
  MIC: 25 percentage of the stock antimicrobial solution (8%)
[2]; 24 h
  MBC: 6.25 percentage of the stock antimicrobial solution (8%)
  MBEC: 6.25 percentage of the stock antimicrobial solution (8%)
  MIC: 6.25 percentage of the stock antimicrobial solution (8%)
P. aeruginosa biofilms [3]; [17]
  Kill %: 83.018%
  LR: 0.77 ± 0.08
P. aeruginosa biofilms [3]; [18]
  Kill %: 97.92%
  LR: 1.68 ± 0.05
P. aeruginosa biofilms [3]; [19]
  Kill %: 99.51%
  LR: 2.31 ± 0.10
P. aeruginosa biofilms [3]; [20]
  Kill %: 99.22%
  LR: 2.10 ± 0.05
P. aeruginosa biofilms [3]; [21]
  Kill %: 99.56%
  LR: 2.35 ± 0.02
P. aeruginosa biofilms [3]; [22]
  Kill %: 95.07%
  LR: 1.31 ± 0.12
S. aureus biofilms [4]; [17]
  Kill %: 97.41%
  LR: 1.59 ± 1.56
S. aureus biofilms [4]; [18]
  Kill %: 59.90%
  LR: 0.40 ± 0.05
S. aureus biofilms [4]; [19]
  Kill %: 80.51%
  LR: 0.71 ± 0.11
S. aureus biofilms [4]; [20]
  Kill %: 54.09%
  LR: 0.34 ± 0.37
S. aureus biofilms [4]; [21]
  Kill %: 79.86%
  LR: 0.70 ± 0.05
S. aureus biofilms [4]; [22]
  Kill %: 80.25%
  LR: 0.70 ± 0.02
[5]; 4%, 24-Hour Biofilm
  Kill %: 100%
  LR: 6.35
[5]; 4%, 48-Hour Biofilm
  Kill %: 100%
  LR: 6.40
[6]; 4%, 24-Hour Biofilm
  Kill %: 99.9998%
[6]; 4%, 24-Hour Biofilm, hydrate
  LR: 5.94±3.43
[6]; 4%, 24-Hour Biofilm, listed as tEDTA, hydrate
  LR: 5.94 ± 3.43
[6]; 4%, 48-Hour Biofilm
  Kill %: 99.9999%
[6]; 4%, 48-Hour Biofilm, hydrate
  LR: 6.99±4.04
[6]; 4%, 48-Hour Biofilm, listed as tEDTA, hydrate
  LR: 6.99 ± 4.04
[7]; 4%, 24-Hour Biofilm
  Kill %: 100%
  LR: 6.44
[7]; 4%, 48-Hour Biofilm
  Kill %: 100%
  LR: 6.50
[8]; 4%, 24-Hour Biofilm
  Kill %: 100%
  LR: 5.40
[8]; 4%, 48-Hour Biofilm
  Kill %: 100%
  LR: 6.43
[9]; 4%, 24-Hour Biofilm
  Kill %: 100%
  LR: 6.09
[9]; 4%, 48-Hour Biofilm
  Kill %: 100%
  LR: 6.41

## O=C([O-])CN(CCN(CC(=O)[O-])CC(=O)[O-])CC(=O)[O-].[Cu+2].[Na+].[Na+] [Cu—Na-EDTA, reference compound]
[10]
  Number of colonies detected: 0 Cfu/ml
[11]
  Number of colonies detected: 0 Cfu/ml

## O=C([O-])CN(CCN(CC(=O)[O-])CC(=O)[O-])CC(=O)[O-].[Ag+].[Cu+2].[Na+] [Compound 1, AgCuNaEDTA]
[12]
  Displacement (%) Copper: 53.49 ± 5.56%
  Displacement (%) Silver: 81.37 ± 4.29%
P. aeruginosa biofilms [13]
  Kill %: 99.99%
  LR: 3.88 ± 0.15
P. aeruginosa biofilms [13]; listed as Ag/Cu/NaEDTA
  LR: 3.5
S. aureus biofilms [14]
  Kill %: 100%
Cells [15]; 25 ppm
  Lysis Index: 1
  Zone Index: 2
Cells [15]; 50 ppm
  Lysis Index: 1
  Zone Index: 3
Cells [15]; 100 ppm
  Lysis Index: 1
  Zone Index: 3
Cells [16]; 25 ppm
  Interpretation: Cytotoxic (if the percentage viability is less than 70% of the untreated control, then the substance is considered cytotoxic)
  Percentage of Control/Percentage Viability (%): 51.54 ± 9.44%
Cells [16]; 50 ppm
  Interpretation: Cytotoxic (if the percentage viability is less than 70% of the untreated control, then the substance is considered cytotoxic)
  Percentage of Control/Percentage Viability (%): 53.66 ± 9.48%
Cells [16]; 100 ppm
  Interpretation: Cytotoxic (if the percentage viability is less than 70% of the untreated control, then the substance is considered cytotoxic)
  Percentage of Control/Percentage Viability (%): 52.57 ± 8.97%

## Silver
[5]; 50 ppm, 24-Hour Biofilm
  Kill %: 100%
  LR: 6.35
[5]; 50 ppm, 48-Hour Biofilm
  Kill %: 100%
  LR: 6.40
[5]; 100 ppm, 24-Hour Biofilm
  Kill %: 100%
  LR: 6.35
[5]; 100 ppm, 48-Hour Biofilm
  Kill %: 100%
  LR: 6.40
[6]; 50 ppm, 24-Hour Biofilm
  Kill %: 100%
  LR: 7.44
[6]; 50 ppm, 48-Hour Biofilm
  Kill %: 100%
  LR: 8.44
[6]; 100 ppm, 24-Hour Biofilm
  Kill %: 100%
  LR: 7.44
[6]; 100 ppm, 48-Hour Biofilm
  Kill %: 100%
  LR: 8.44
[7]; 50 ppm, 24-Hour Biofilm
  Kill %: 100%
  LR: 6.44
[7]; 50 ppm, 48-Hour Biofilm
  Kill %: 100%
  LR: 6.50
[7]; 100 ppm, 24-Hour Biofilm
  Kill %: 100%
  LR: 6.44
[7]; 100 ppm, 48-Hour Biofilm
  Kill %: 100%
  LR: 6.50
[8]; 50 ppm, 24-Hour Biofilm
  Kill %: 100%
  LR: 5.40
[8]; 50 ppm, 48-Hour Biofilm
  Kill %: 100%
  LR: 6.43
[8]; 100 ppm, 24-Hour Biofilm
  Kill %: 100%
  LR: 5.40
[8]; 100 ppm, 48-Hour Biofilm
  Kill %: 100%
  LR: 6.43
[9]; 50 ppm, 24-Hour Biofilm
  Kill %: 100%
  LR: 6.09
[9]; 50 ppm, 48-Hour Biofilm
  Kill %: 100%
  LR: 6.41
[9]; 100 ppm, 24-Hour Biofilm
  Kill %: 100%
  LR: 6.09
[9]; 100 ppm, 48-Hour Biofilm
  Kill %: 100%
  LR: 6.41
